In US12195804B2, “Treatment of squamous cell carcinoma” (Board of Regents, The University of Texas System, priority 2018, dated 2025):

Experiments:
HNSCC cell lines [1] = assay: CellTiter-Glo cell viability assay; assay type: cell-based, human; conditions: for cell viability, NOTCH1MUT and NOTCH1WT cell lines: 0-200 nM
Experimental: Cell viability assay. […] A CellTiter-Glo luminescent cell viability assay (Promega, Madison, WI) was performed as described previously (Castel et al., 2016; Muellner et al., 2011). Inhibitory concentration (ICs) and area under the curve (AUC) values were calculated using the drexplorer R package with a best-fit dose-response model (Zumsteg et al., 2016). The combination indices were calculated using the Chou-Talalay method (Cal et al., 2017) in CalcuSyn (Biosoft, Cambridge, UK). We tested the reproducibility and robustness of the data generated using three quality control parameters as described previously (Bohnacker et al., 2017). These parameters were the concordance correlation coefficient, location shift, and maximum standard deviation between two biological replicates for three technical and two biological replicates. Based on heuristics from our previous screening studies in lung cancer (Bohnacker et al., 2017), the cut-offs for reproducibility were a concordance correlation coefficient greater than 0.8, a location shift less than 0.9, and a standard deviation less than 0.23 based on the normal mixture fit model. Experiments not satisfying these criteria were repeated. The replicate with the smallest experimental variation measured by the median of standard deviation was chosen as a representative of the replicates, and its IC values served as the final values for subsequent analysis.
Cell lines were classified as sensitive based on IC70 values less than the peak plasma concentration for each drug. To determine if cross-comparison of the PI3K/mTOR inhibitors as a class was feasible, their drug sensitivity patterns were compared with those of three cell cycle kinase inhibitors tested previously (Zhang et al., 2017). The PI3K/mTOR pathway inhibitors clustered separately from the cell cycle inhibitors (FIG. 12C).

HNSCC cell lines [2] = assay: Apoptosis assays (Annexin V/propidium iodide, BrdU TUNEL, cleaved PARP/caspase 3); assay type: cell-based, human; conditions: alone, regardless of NOTCH1 status
Experimental: FIGS. 7A-7D: PI3K/mTOR signaling inhibition induces cell death in NOTCH1^MUT but not NOTCH1^WT head and neck squamous cell carcinoma (HNSCC) cell lines in vitro. FIG. 7A. Annexin V/propidium iodide or BrDU-terminal deoxynucleotidyl transferase (TdT) dUTP nick-end labeling (TUNEL) assays were used to measure apoptosis in HNSCC cells with the indicated NOTCH1 and PIK3CA mutations, which were treated with 50 nM GSK2126458 (GSK212) for 24 or 48 hours, respectively. Values are the means±standard deviations of three independent experiments. *p<0.05, unpaired two-tailed Student t-test. FIG. 7B. Western blotting of cleaved PARP (Cl-PARP) and cleaved caspase 3 (Cl-Caspase 3) levels in mutant and wild type cells after GSK212 treatment for 48 hours. FIG. 7C. NOTCH1^MUT and NOTCH1^WT HNSCC cells were plated sparsely and treated with GSK212 at the indicated concentrations for 48 hours. At 14-21 days after treatment, the cells were fixed and stained, images were captured using the GelCount Tumour Colony Counter, and colony numbers and the colorimetric intensity of the colonies were determined by measuring the optical density (OD) at 570 nm. Values are the means±standard deviations of three independent experiments. *p<0.001, unpaired two-tailed Student t-test. FIG. 7D. Three NOTCH1^WT lines (black text and bars) and three NOTCH1^MUT lines (red text and bars) were treated with increasing concentrations of GSK212 for 4 hours, and levels of PI3K/mTOR pathway proteins were measured by Western blot analysis.
Western blot analysis. Western blot analysis was performed as described previously (Ferrarotto et al., 2016). In brief, cells were lysed with ice-cold lysis buffer, and the lysates were centrifuged at 20,000×g for 10 minutes at 4° C. Cell samples containing equal amounts of protein were resolved using sodium dodecyl sulfate-polyacrylamide gel electrophoresis, transferred to nitrocellulose membranes, and immunoblotted with different primary antibodies. Protein expression was detected using a horseradish peroxidase-conjugated secondary antibody (Bio-Rad, Hercules, CA) and electrochemiluminescence reagent (Amersham Biosciences, Pittsburg, PA).
Apoptosis and cell cycle assays. To measure apoptosis, we performed terminal deoxynucleotidyl transferase dUTP nick end labeling (TUNEL) staining with an APO-BRDU Kit (BD Biosciences, San Jose, CA) and Annexin V/propidium iodide staining with an FITC Annexin V Apoptosis Detection Kit (BD Pharmingen, San Diego, CA) as described previously (Chandarlapaty et al., 2011). […] Data were acquired with a three-laser, 10-color Gallios flow cytometer (Beckman Coulter, Brea, CA) and analyzed using Kaluza software (Beckman Coulter, Brea, CA). […]

[3] = tested on: pAKT, pS6 and p4EBP1 in HNSCC cell lines; assay: Western blot of PI3K pathway signaling after bimiralisib; assay type: cell-based, human; conditions: four HNSCC cell lines, 2 hours
Experimental: Cells were lysed and then resolved by SDS PAGE. Western blot analysis was performed using the indicated antibodies.

HNSCC cell lines [4] = assay: Sensitivity of 69 HNSCC cell lines to bimiralisib; assay type: cell-based, human
Excerpt: IC50 values were estimated from the best-fit dose-response model selected by calculating residual standard error using the R packages Dose Finding and drc (dose response curve) (Ritz and Streibig 2005, Bornkamp, Bretz et al. 2011). All experiments were done in duplicate and we compared the response between two experiments using concordance correlation coefficient (CCC). The CCC can be computed based on the scaled response as well as original unscaled response. The scaled version should be more relevant since this is actually the data used in IC estimation. […] To identify differentially expressed features between the comparative groups, we applied modified two-sample t-tests using the Limma package. The beta-uniform mixture (BUM) model, described by Pounds and Morris was used to control false discovery rate (FDR) (Pounds and Morris 2003).

HNSCC cell lines [5] = assay: BrdU TUNEL cell death, cell cycle and apoptosis markers after bimiralisib; assay type: cell-based, human; conditions: 5 μM
Excerpt: Apoptotic death in NOTCH1 mutants, but not wt cell lines, was confirmed with cleaved PARP and Caspase 3.

pAKT, pS6 and p4EBP = conditions: therapeutic doses; cited from earlier work
[6] = human, oral; cited from earlier work
[7] = administered orally; cited from earlier work
[8] = tested on: UM22A, HN31 and FaDu HNSCC xenografts; assay: Orthotopic tongue xenografts treated with bimiralisib; conditions: for tumor growth: 50 mg/kg PO once daily 28 days
other protein kinases = conditions: cited from earlier work
EGFR^MUT lung cancers = conditions: EGFRMUT lung cancers; cited from earlier work

COc1c(OCCCN2CCOCC2)ccc2c1N=C(NC(=O)c1cnc(N)nc1)N1CCN=C21 [BAY806946]
cell viability, NOTCH1MUT and NOTCH1WT cell lines (HNSCC cell lines [1]; 72 hours): differential effects

Nc1cc(C(F)(F)F)c(-c2cc(N3CCOCC3)nc(N3CCOCC3)n2)cn1 [BKM120]
effectiveness across HNSCC cell lines (IC70) (HNSCC cell lines [1]; 59 HNSCC cell lines, 72 hours): almost universally effective

CNc1nc(-c2ccc3c(N)n[nH]c3c2)cc(N2C[C@@H](C(=O)NC3CCCCC3)CC[C@H]2C)n1 [GSK2334470]
apoptosis (HNSCC cell lines [2]): little effect | cell viability (HNSCC cell lines [1]; alone, regardless of NOTCH1 status): little effect

NC1(c2ccc(-c3nc4ccn5c(=O)[nH]nc5c4cc3-c3ccccc3)cc2)CCC1 [MK-2206]
cell viability, NOTCH1MUT and NOTCH1WT cell lines (HNSCC cell lines [1]; 72 hours): resistant

Nc1cc(C(F)(F)F)c(-c2nc(N3CCOCC3)nc(N3CCOCC3)n2)cn1 [bimiralisib, 5-(4,6-Dimorpholino-1,3,5-triazin-2-yl)-4-(trifluoromethyl)pyridin-2-amine]
pAKT, pS6 and p4EBP1 (Western blot) [3]: decrease | pAKT, pS6 and p4EBP1 (Western blot) ([3]; listed as Bimiralisib): inhibits PI3K pathway signaling | IC50 (HNSCC cell lines [4]; Homo sapiens, 66 of 69 HNSCC cell lines): < 3 µM | number of cell lines Resistant (HNSCC cell lines [4]; NOTCH1 Mutant cell lines): 3 | number of cell lines Sensitive (HNSCC cell lines [4]; NOTCH1 Mutant cell lines): 12 | number of cell lines Resistant (HNSCC cell lines [4]; NOTCH1 WT cell lines): 20 | number of cell lines Sensitive (HNSCC cell lines [4]; NOTCH1 WT cell lines): 18 | cell death by BrdU-TUNEL (HNSCC cell lines [5]; 48 hours, HNSCC lines with NOTCH1 mutations): significantly increased | cell cycle effect (HNSCC cell lines [5]; HNSCC NOTCH1wt lines): arrested cell lines in G1/S | pAKT, pS6 and p4EBP in tumor tissue (pAKT, pS6 and p4EBP): marked decreases | Tmax [6]: < 2 h | terminal half-life [6]: 51 h | crossing of the blood-brain barrier [7]: crosses the blood-brain barrier | tumor growth ([8]; FaDu (NOTCH1wt)): not affected | tumor growth ([8]; UM22A and HN31 (NOTCH1 inactivating mutations)): significant reduction of tumor growth | body weight ([8]; 50 mg/kg PO once daily, 28 days, mice): without body weight loss | inhibition of other protein kinases (KINOMEscan) (other protein kinases): does not significantly inhibit

C=CC(=O)Nc1cc(Nc2nccc(-c3cn(C)c4ccccc34)n2)c(OC)cc1N(C)CCN(C)C [osimertinib]
response rate (EGFR^MUT lung cancers): about 80%

CO[C@H]1C[C@@H]2CC[C@@H](C)[C@@](O)(O2)C(=O)C(=O)N2CCCC[C@H]2C(=O)O[C@H]([C@H](C)C[C@@H]2CC[C@@H](OP(C)(C)=O)[C@H](OC)C2)CC(=O)[C@H](C)/C=C(\C)[C@@H](O)[C@@H](OC)C(=O)[C@H](C)C[C@H](C)/C=C/C=C/C=C/1C [ridaforolimus]
cell viability, NOTCH1MUT and NOTCH1WT cell lines (HNSCC cell lines [1]; 72 hours): resistant
